Measurements published in US10098909B2 (UNIVERSITY OF SOUTH FLORIDA, priority 2016, dated 2018).

Experiments:
[1] = tested on: Wild-type mouse neuroblastoma (N2a) cells; assay: Neuronal cell differentiation in N2a cells (β-tubulin III, phospho-synapsin I; immunofluorescence and WB); format: cell-based; conditions: 10 mM, 24 h
Protocol: These cells were then permeabilized with 0.05% Triton X-100 for 5 min, washed, and incubated with mouse anti-β-tubulin III monoclonal antibody ([…]™), and rabbit anti-phospho-synapsin I (Ser^62, Ser^67) polyclonal antibody (EMD Millipore) overnight at 4° C. Alexa Fluor® 488 Goat anti-mouse IgG (green) and Alexa Fluor® 594 Donkey anti-rabbit IgG (red, Life Technologies) were used to detect β-tubulin III and phospho-synapsin I signals respectively. Confocal images were taken by Olympus Fluoview™ FV1000 laser scanning confocal microscope (Tokyo, Japan).

[2] = tested on: Human neural stem cells (H9-Derived); assay: Human neural stem cell differentiation (MAP2, GFAP; immunofluorescence and WB); format: cell-based; conditions: 10 mM, 14 days
Protocol: These cells were then permeabilized, washed, incubated with mouse anti-MAP2 monoclonal antibody or rabbit anti-GFAP polyclonal antibody overnight at 4° C., stained with Alexa Fluor® 488 (green) and Alexa Fluor® 594 (red), and visualized by confocal microscopy. DAPI (blue) was used to detect nuclear DNA.

[3] = tested on: GSK3β; assay: GSK3β phosphorylation in Fmr1 KO mouse embryonic fibroblasts (WB); format: cell-based; conditions: 60 min
Protocol: FIGS. 5A-5B. […] Many neurodegenerative disorders, including FXS, have been associated with enhanced GSK activity (14-16). Fmr1 KO mouse embryonic fibroblasts (Fmr1 KO MEF) have elevated levels of stimulatory GSK3β ([…]) phosphorylation compared to wild-type MEF (both cell lines kindly provided by Dr. David Nelson, Baylor College of Medicine). […] Cell lysates were then prepared and subjected to WB analysis using specific phospho-GSK3β (pGSK3β)^Tyr216, pGSK3β^Ser9 and total GSK antibodies.

[4] = tested on: GSK3α; assay: GSK3α Tyr279 phosphorylation in brain homogenates of Fmr1 KO mice (WB); format: in vivo, mouse; conditions: 28 mg/kg/day i.p., 5 days
Protocol: (§1) (6A) Mouse brain homogenates were then prepared from cerebral cortex and hippocampus and analyzed by WB with specific pGSK3α^Tyr279, pGSK3β^Tyr216 and total GSK antibodies.

[5] = tested on: GSK3β; assay: GSK3β Tyr216 phosphorylation in brain homogenates of Fmr1 KO mice (WB); format: in vivo, mouse; conditions: 28 mg/kg/day i.p., 5 days
Protocol: as §1

[6] = In vivo plasma and brain lithium pharmacokinetics after oral gavage (AAS); design: species or system Sprague-Dawley rats; conditions: for time of plasma lithium peak: sampled at 2, 24, 48, 72 h; for plasma and brain lithium level profile after oral dosing: summary of FIG. 2, up to 48 h
[7] = tested on: Fmr1 KO mice; conditions: dfmr1 mutant Drosophila and Fmr1 KO mice; cited from earlier work
[8] = tested on: Fmr1 KO mice; conditions: cited from earlier work
[9] = male rats, 4 mEq/kg lithium, oral gavage

In the case of `O=C(O)[C@@H]1CCCN1` [1-proline, L-proline], the “neuronal cell differentiation (β-tubulin III and phospho-synapsin I immunofluorescence and WB) vs PBS” value (shortened to “neuronal cell differentiation”) [1] is reported as “no significant difference”, the “GFAP expression (gliogenesis; immunofluorescence and WB, GFAP to β-actin) vs PBS” value (shortened to “GFAP expression … vs PBS”) [2] is reported as “no significance difference” and the “MAP2 expression (immunofluorescence and WB, MAP2 to β-actin) vs PBS” value (from here on “MAP2 expression … vs PBS”) [2] is reported as “no significance difference”.

For `O=C(O)[C@@H]1CCCN1.O=C([O-])c1ccccc1O.[Li+]` [LISPRO], the “stimulatory pGSK3β Tyr216 level” value ([3]; Fmr1 KO MEF, 40 μM) was “decreased”, the “total GSK3β level” value ([3]; Fmr1 KO MEF, 10, 20 or 40 μM) was “unchanged” and the “inhibitory pGSK3β Ser9 level” value ([3]; Fmr1 KO MEF, starting at 10 μM) was “increased”. For the same molecule, the “pGSK3α Tyr279 level in cerebral cortex and hippocampus” value [4] was “reduced these levels”, the “pGSK3β Tyr216 level in cerebral cortex and hippocampus” value [5] was “reduced these levels” and the “plasma lithium level at 2 h” value ([6]; male rats, 4 mEq/kg lithium, oral gavage, 2 h) was “elevated”. The “plasma lithium level at 48 h” value [6, 9] was “remained elevated”, the “plasma lithium level at 72 h” value ([6]; male rats, 4 mEq/kg lithium, oral gavage, 72 h) was “almost undetectable” and the “brain lithium levels at 24 and 48 h” value ([6]; male rats, 4 mEq/kg lithium, oral gavage, brain, 24 and 48 h) was “steady brain levels”. The “time of plasma lithium peak” value [6, 9] was 24 h and the “plasma and brain lithium level profile after oral dosing” value [6] was “nearly steady levels of lithium in plasma and brain for up to 48 h without the initial spike”.

In the case of `O=C([O-])[O-].[Li+].[Li+]` [Li2CO3, lithium carbonate], the “neuronal cell differentiation” value [1] is reported as “no significant difference”, the “GFAP expression … vs PBS” value [2] is reported as “no significance difference” and the “MAP2 expression … vs PBS” value [2] is reported as “no significance difference”. The “plasma lithium level at 48 h” value [6, 9] was “nearly undetectable”, the “brain lithium level at 24 h” value ([6]; male rats, 4 mEq/kg lithium, oral gavage, brain, 24 h) was “concomitant spike” and the “time of plasma lithium peak” value [6, 9] was 24 h. The “plasma and brain lithium level profile after oral dosing” value [6] was “spike in plasma and brain lithium levels at 24 h with considerably lower or undetectable levels at 48 h”.

In the case of `[Cl-].[Li+]` [LiCl], the “neuronal cell differentiation” value [1] is reported as “no significant difference”, the “GFAP expression … vs PBS” value [2] is reported as “no significance difference” and the “MAP2 expression … vs PBS” value [2] is reported as “no significance difference”.

In the case of `Cn1cc(C2=C(c3ccc(Cl)cc3Cl)C(=O)NC2=O)c2ccccc21` [SB-216763], the “FXS behavioral phenotypes (hyperactivity, social and cognitive impairment)” value [7] is given as “reverse these behavioral deficits”.

For `Cn1sc(=O)n(Cc2ccccc2)c1=O` [TDZD-8], the “FXS behavioral phenotypes (hyperactivity, social and cognitive impairment)” value [7] is listed as “reverse these behavioral deficits”.

B1: BDNF: brain derived neurotrophic factor, a potent modulator of learning and memory, synaptic plasticity and neurogenesis (protein, UniProt P23560 19-247, looked up)
Neurotrophic factor BDNF …: APMKEANIRGQGGLAYPGVRTHGTLESVNGPKAGSRGLTSLADTFEHVIEELLDEDQKVRPNEENNKDADLYTSRVMLSSQVPLEPPLLFLLEEYKNYLDAANMSMRVRRHSDPARRGELSVCDSISEWVTAADKKTAVDMSGGTVTVLEKVPVSKGQLKQYFYETKCNPMGYTKEGCRGIDKRHWNSQCRTTQSYVRALTMDSKKRIGWRFIRIDTSCVCTLTIKRGR
For B1, the “impairment in hippocampal long term potentiation” value [8] is listed as “fully restored”.
